Test system: SCT adult rats
Experiment: Lumbar spinal circuitry after SCT (c-Fos and synapsin-1 immunostaining)
Assay type: in vivo, rat
Protocol: Rats were randomly divided into the following three experimental groups: 1) untrained + placebo, 2) untrained + SM-345431 and 3) trained + SM-345431. SCT was performed, and SM-345431 or placebo was administered at the lesion site via the newly developed DDS, which is described in detail below. Starting 1 week post-injury, treadmill training commenced with a BSS. Kinematic tests were performed monthly for 3 months after SCT using a rodent robotic device (Rodent robot 3000, Robomedica Inc.) that primarily assessed the performance of plantar stepping on a treadmill. Treadmill training was continued throughout the experimental period.
A total of 53 adult female Sprague-Dawley rats (200-250 g, 10-12 weeks old) were used in this study (3 rats died during the experimental period and were excluded from the statistical analysis). All procedures were approved by the experimental animal care committee of Keio University, School of Medicine and Murayama Medical Center (approval #12-8). All rats were anesthetized with an intraperitoneal injection of ketamine (100 mg/kg)/xylazine (10 mg/kg). The spinal cord at the level of the T10 lamina was exposed by T10 laminectomy, and the dorsal dura mater was opened. The exposed spinal cord was cut along the inner edge of the vertebra with a sharp micro-scissor. Two more cuts were made at the gap of the transected spinal cord by a scalpel to ensure total transection. SM-345431 or placebo was administered to the transected site via the newly developed DDS as described in detail below (Figure 1G-I). After these procedures, the back muscles and skin were closed. Rats were kept warm in an incubator (37°C) after surgery. To prevent dehydration in the rats, 10 ml of saline was subcutaneously injected daily until day 7. Ampicillin (0.4 g/kg) was also injected intramuscularly daily to prevent infection until day 7. The bladder was evacuated manually until autonomous emptying of the bladder was achieved. The re-transection procedure was performed at the same level as the primary SCT (15 rats total; 5 rats from each group). Kinematic data were recorded using similar procedures prior to re-transection surgery (on the same day) and on the day following re-transection surgery. For CST tracing, 10% BDA was injected as follows. Nine weeks after SM-345431 or placebo administration, BDA (10000 MW, Molecular Probes) was injected into six different sites of the sensorimotor cortices of the rats under general anesthesia (site 1: 2.0 mm lateral, 0 mm to bregma; site 2: 2.0 mm lateral, 2 mm posterior to bregma; site 3: 2.0 mm lateral, 4 mm posterior to bregma; site 4: 4 mm lateral, 0 mm to bregma; site 5: 4 mm lateral, 2 mm posterior to bregma and site 6: 4 mm lateral, 4 mm posterior to bregma). […]

## CC(=O)c1cc2c(=O)c3c(C(=O)O)c(O)c(O)cc3oc2c(C(C)=O)c1-c1coc2cc(O)c(O)c(C(=O)O)c2c1=O [SM-345431, Vinaxanthone]
SM-345431 alone, L1-L5 levels, not statistically significant
  number of c-Fos + nuclei versus control SCI rats: tended to be lower
SM-345431 alone, P > 0.05
  synapsin-1 expression at the lumbar enlargement versus control SCT group: No statistically significant difference
SM-345431 combined with treadmill training, L4 and L5 levels, P < 0.01
  number of c-Fos + nuclei versus control SCT rats: statistically significant decrease
SM-345431 combined with treadmill training, P < 0.01 vs control SCT, P < 0.05 vs SM-345431 group
  synapsin-1 expression at the lumbar enlargement: statistically significant increase
